Source: patent US20240218022A1, “ANTI-VISTA MACROCYCLIC PEPTIDES AND COMPOSITIONS” (BRISTOL-MYERS SQUIBB COMPANY, priority 2022, published 2024)
Like-named read-outs stand apart in the source and are kept apart here. Values belong to the molecule of their own block, whether it stands above or below them. Starred links: 1 amine or outer side, 2 acyl side, 3 side chain; linkers in the order of their positions; H or OH if unused. Positions of bridges follow the written chain, without caps; N, C: chain ends. Non-standard residues stand in square brackets, D forms with d. Residues, ends and D or L forms follow the SMILES beside them. Phe(3-Me) = Cc1cccc(C[C@H](N)C(=O)O)c1; γGlu = O=C(O)[C@H](CCC(=O)[*:2])N[*:1]; 2Nal = N[C@@H](Cc1ccc2ccccc2c1)C(=O)O; βAsp = O=C(O)[C@H](CC(=O)[*:2])N[*:1]; Ahp(2) = CCCCC[C@H](N)C(=O)O; NMeNle = CCCC[C@H](NC)C(=O)O; Tle = CC(C)(C)[C@H](N)C(=O)O; NMeV = CN[C@H](C(=O)O)C(C)C; NHexGly = CCCCCCNCC(=O)O; Nle = CCCC[C@H](N)C(=O)O; Aun = NCCCCCCCCCCC(=O)O; AEEA = NCCOCCOCC(=O)O

Molecular target: T1, mouse VISTA (mVISTA) (Mus musculus, UniProt Q9D659)
T1 construct: expressed in transfected cells; host or cells: Human embryonic kidney 293T cells
T1 sequence (Q9D659 33-308): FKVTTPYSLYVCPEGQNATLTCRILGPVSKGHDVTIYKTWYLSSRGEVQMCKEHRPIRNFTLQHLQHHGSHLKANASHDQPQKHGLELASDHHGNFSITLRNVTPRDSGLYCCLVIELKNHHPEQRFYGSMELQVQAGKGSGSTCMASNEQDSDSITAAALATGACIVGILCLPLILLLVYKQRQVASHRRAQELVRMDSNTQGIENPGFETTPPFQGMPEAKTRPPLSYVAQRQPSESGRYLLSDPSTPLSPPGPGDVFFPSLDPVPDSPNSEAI
Test: Cell-Based Binding High-Content Assay For mVISTA (HC CBA mVISTA)
In short: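 293T cells expressing mouse VISTA, with compounds added either after seeding ("no wash") or before seeding and then washed out after 1 h. Biotinylated peptide 2 nM for 30 min at room temperature, then detection with Alexa 647–streptavidin. After fixation with Hoechst stain, plates were high-content imaged; IC50 from four-parameter logistic fit.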

- IC50 (293T cells expressing mouse VISTA, competition with biotinylated peptide (2 nM), read-out: HC CBA mVISTA IC50): 32.2 nM
SMILES: CCCCCCN1CC(=O)N[C@@H](Cc2ccc(O)cc2)C(=O)N[C@@H](CCCC)C(=O)N[C@@H](CC(=O)O)C(=O)N[C@@H](CCCNC(=N)N)C(=O)N[C@@H](CC(C)C)C(=O)N[C@@H](CCCCC)C(=O)N2CCC[C@H]2C(=O)N[C@@H](C(C)C)C(=O)N[C@@H](CCCCC)C(=O)N[C@H](C(=O)NCC(=O)O)CSCC(=O)N[C@@H](Cc2ccccc2)C(=O)N[C@@H](Cc2ccc(O)cc2)C(=O)N[C@@H](CC(=O)O)C1=O [Example 1021] ({CH2CO}-FYD[NHexGly]Y[Nle]DRL[Ahp(2)]PV[Ahp(2)]CG-OH; thioether N-14)

- IC50 (cell-based binding high-content assay, mVISTA, read-out: HC CBA miPrISTA IC50): 34.7 nM
SMILES: CCCCCCN1CC(=O)N[C@@H](Cc2ccc(O)cc2)C(=O)N[C@@H](C)C(=O)N[C@@H](CC(N)=O)C(=O)N[C@@H](CCCNC(=N)N)C(=O)N(C)[C@@H](CCCC)C(=O)N[C@@H](CCCCC)C(=O)N2CCC[C@H]2C(=O)N[C@@H](C(C)(C)C)C(=O)N[C@@H](CC(=O)O)C(=O)N[C@H](C(=O)N[C@@H](CC(=O)NCCOCCOCC(=O)N[C@@H](CC(=O)O)C(=O)NCCOCCOCC(=O)NCCCCCCCCCCC(=O)O)C(=O)O)CSCC(=O)N[C@@H](Cc2ccccc2)C(=O)N[C@@H](Cc2c[nH]c3ccccc23)C(=O)N[C@@H](CC(=O)O)C1=O [compound 2094] ({CH2CO}-FWD[NHexGly]YANR[NMeNle][Ahp(2)]P[Tle]DC[βAsp][AEEA]D[AEEA][Aun]-OH; thioether N-14)

- IC50 (cell-based binding high-content assay, mVISTA, the 16th table, read-out: HC CBA mVISTA IC50): 31.4 nM
SMILES: CCCCCCN1CC(=O)N[C@@H](Cc2ccc(O)cc2)C(=O)N[C@@H](CC(C)C)C(=O)NCC(=O)N[C@@H](CCCNC(=N)N)C(=O)N[C@@H](CC(N)=O)C(=O)N[C@@H](CCCCC)C(=O)N2CCC[C@H]2C(=O)N[C@@H](C(C)C)C(=O)N[C@@H](CO)C(=O)N[C@H](C(=O)NCC(N)=O)CSCC(=O)N[C@@H](Cc2ccc3ccccc3c2)C(=O)N[C@@H](Cc2ccc(O)cc2)C(=O)N[C@@H](CC(=O)O)C1=O [Ex 1295] ({CH2CO}-[2Nal]YD[NHexGly]YLGRN[Ahp(2)]PVSCG-NH2; thioether N-14)

- IC50 (read-out: HC CBA mVISTA IC50): 24 nM
SMILES: CCCCCCN1CC(=O)N[C@@H](Cc2ccc(O)cc2)C(=O)N[C@@H](C(C)C)C(=O)NCC(=O)N[C@@H](CCCNC(=N)N)C(=O)N[C@@H](CC(C)C)C(=O)N[C@@H](CCCCC)C(=O)N2CCC[C@H]2C(=O)N[C@@H](C(C)C)C(=O)N[C@@H](CC(=O)O)C(=O)N[C@H](C(=O)NCCOCCOCC(=O)N[C@@H](CCC(=O)NCCOCCOCC(=O)NCCCCCCCCCCC(=O)O)C(=O)O)CSCC(=O)N[C@@H](Cc2ccc3ccccc3c2)C(=O)N[C@@H](Cc2ccc(O)cc2)C(=O)N[C@@H](CC(=O)O)C1=O [compound 2219] ({CH2CO}-[2Nal]YD[NHexGly]YVGRL[Ahp(2)]PVDC[AEEA][γGlu][AEEA][Aun]-OH; thioether N-14)

- IC50 (the 19th table, scaffold drawing 22, read-out: HC CBA mVISTA IC50): 14.8 nM
SMILES: CCCCCCN1CC(=O)N[C@@H](Cc2ccc(O)cc2)C(=O)N[C@@H](CCCC)C(=O)N[C@@H](CC(=O)O)C(=O)N[C@@H](CCCNC(=N)N)C(=O)N(C)[C@@H](CCCC)C(=O)N[C@@H](CCCCC)C(=O)N2CCC[C@H]2C(=O)N[C@@H](C(C)C)C(=O)N[C@@H](CC(=O)O)C(=O)N[C@H](C(=O)N[C@@H](CC(=O)O)C(N)=O)CSCC(=O)N[C@@H](Cc2cccc(C)c2)C(=O)N[C@@H](Cc2c[nH]c3ccccc23)C(=O)N[C@@H](CC(=O)O)C1=O [compound 1440] ({CH2CO}-[Phe(3-Me)]WD[NHexGly]Y[Nle]DR[NMeNle][Ahp(2)]PVDCD-NH2; thioether N-14)

- IC50 (cell-based binding high-content assay, mVISTA, read-out: HC CBA miPr ISTA IC50): 34.4 nM
SMILES: CCCCCCN1CC(=O)N[C@@H](Cc2ccc(O)cc2)C(=O)N[C@@H](CC(C)C)C(=O)N[C@@H](CC(N)=O)C(=O)N[C@@H](CCCNC(=N)N)C(=O)N(C)[C@@H](C(C)C)C(=O)N[C@@H](CCCCC)C(=O)N2CCC[C@H]2C(=O)N[C@@H](C(C)(C)C)C(=O)N[C@@H](CC(=O)O)C(=O)N[C@H](C(=O)N[C@@H](CC(=O)NCCOCCOCC(=O)N[C@@H](CC(=O)O)C(=O)NCCOCCOCC(=O)NCCCCCCCCCCC(=O)O)C(=O)O)CSCC(=O)N[C@@H](Cc2ccccc2)C(=O)N[C@@H](Cc2ccc(O)cc2)C(=O)N[C@@H](CC(=O)O)C1=O [compound 2037] ({CH2CO}-FYD[NHexGly]YLNR[NMeV][Ahp(2)]P[Tle]DC[βAsp][AEEA]D[AEEA][Aun]-OH; thioether N-14)
